Measured values: US10875874B2, “Ginkgolide B derivative and preparation method and use thereof” (Chengdu Baiyu Ginkgolide Pharmaceuticals Co., Ltd., priority 2015, dated 2020)
Marks after values point to notes of the source that are not given here.

Legend:
Format in all cases: in vivo, rat
[1] = Weekly food intake of SHR rats
Protocol: (§1) 2.1 Grouping and administration of animals: 112 SHR rats (the female and male SHR rats are half and half, and the female rats are not pregnant) with the body weight of 200-250 g are taken, the rats are enabled to adapt to a laboratory for a period of 5 d, blood pressure is measured once at a day to enable the rats to adapt to the environment and detect stimulation. Then, weighing and numbering are carried out, and the SHR rats are equally divided into 14 groups randomly (each group comprises 8 rats), i.e., an SHR rat model control group, a positive control group (captopril, 27 mg/kg), a BZ large-dose group (120 mg/kg/d), a BZ small-dose group (60 mg/kg/d), a BA large-dose group (120 mg/kg/d), a BA small-dose group (60 mg/kg/d), a BL large-dose group (120 mg/kg/d), a BL small-dose group (60 mg/kg/d), a BM large-dose group (120 mg/kg/d), a BM small-dose group (60 mg/kg/d), a BD large-dose group (120 mg/kg/d), a BD small-dose group (60 mg/kg/d), a GB large-dose group (120 mg/kg/d) and a GB small-dose group (60 mg/kg/d). In addition, 8 healthy Wistar rats are taken as a normal control group. Intragastric administration is performed on the rats of each drug group separately according to the above-mentioned doses by 1 mL/100 g body weight, intragastric administration is performed on the rats of the normal control group and the rats of the SHR rat model control group with an equal volume of distilled water, and administration is performed continuously for 8 weeks.
(§2) 2.2 General state: during observation, conditions such as mind, water drinking, food intake, bowel movement, hair color, body weight and range of motion of rats are observed. Irritable degrees of the rats are divided into III levels: a level I means that the rats are free of obvious response when necks of the rats are seized; a level II means that the rats scream and startle when the necks of the rats are seized; and a level III means that the rats bite or rats of same cages frequently fight when the necks of the rats are seized.
(§3) 3.1 Influence on general state of spontaneously hypertensive rats: the rats of the normal control group are normal in food intake, drinking and motion conditions, sensitive in response, healthy and glossy in hair color, good in mental state and free of any unusual response; the rats of the SHR model group gradually present that back hair is fluffy, clustered and dim, the appetite is reduced, the body weight is reduced, the mind is dispirited and irritable, and the rats are prone to the behaviors of intense resisting, attacking and so on during administration and blood pressure detection, and irritable degrees are mostly changed to a level II and a level III from a level I; and after single administration of ginkgolide B and derivatives thereof, behavioral general state observations of rats of each group are free of obvious difference from those of the model control group.

[2] = Weekly body weight of SHR rats
Protocol: as §1, §2, §3

[3] = system: spontaneously hypertensive rats (SHR); experiment: Caudal artery systolic pressure of spontaneously hypertensive rats, 8 weeks of continuous medication; conditions: x ± s, n = 8
Protocol: as §1
(§4) 2.3 Blood pressure measuring: caudal artery systolic pressure of rats is measured with a Bp-6 noninvasive blood pressure measuring system. Under the condition that the rats are calm, the systolic pressure is continuously measured for 3 times, and the average value of the measured systolic pressure is taken as a pressure measuring result. Observation indexes: (1) single-administration pressure lowering effect: blood pressure of the rats is measured before administration and blood pressure conditions are measured 30 min, 60 min, 90 min and 120 min after first administration; and (2) continuous-administration pressure lowering condition: blood pressure is separately measured 30 min after administration at 1 d, 7 d, 13 d, 19 d, 25 d, 35 d, 49 d and 56 d, the blood pressure is repeatedly measured for 3 times at a day, and the average value of obtained values is taken as a final blood pressure value.

[4] = system: spontaneously hypertensive rats (SHR); experiment: Caudal artery systolic pressure of spontaneously hypertensive rats, single administration; conditions: x ± s, n = 8
Protocol: as §1, §4

[5] = 60 mg/kg/d intragastric, week 0
[6] = 60 mg/kg/d intragastric, week 1
[7] = 60 mg/kg/d intragastric, week 2
[8] = 60 mg/kg/d intragastric, week 3
[9] = 60 mg/kg/d intragastric, week 4
[10] = 60 mg/kg/d intragastric, week 5
[11] = 60 mg/kg/d intragastric, week 6
[12] = 60 mg/kg/d intragastric, week 7
[13] = 60 mg/kg/d intragastric, week 8
[14] = 120 mg/kg/d intragastric, week 0
[15] = 120 mg/kg/d intragastric, week 1
[16] = 120 mg/kg/d intragastric, week 2
[17] = 120 mg/kg/d intragastric, week 3
[18] = 120 mg/kg/d intragastric, week 4
[19] = 120 mg/kg/d intragastric, week 5
[20] = 120 mg/kg/d intragastric, week 6
[21] = 120 mg/kg/d intragastric, week 7
[22] = 120 mg/kg/d intragastric, week 8

Structure (SMILES): CC1C(=O)OC2C(O)C34C5CC(C(C)(C)C)C36C(OC(=O)C6O)OC4(C(=O)O5)C12O (stereo not shown) [GB, ginkgolide B]
- Average dairy food intake [1, 5]: 18.6 g/day
- Average dairy food intake [1, 6]: 20.1^▴ g/d
- Average dairy food intake [1, 7]: 18.9^▴ g/d
- Average dairy food intake [1, 8]: 17.7 g/day
- Average dairy food intake [1, 9]: 18.6^▴ g/d
- Average dairy food intake [1, 10]: 21.7^▴▴ g/d
- Average dairy food intake [1, 11]: 23.5^▴▴ g/d
- Average dairy food intake [1, 12]: 24.2^▴▴ g/d
- Average dairy food intake [1, 13]: 25.4^▴▴ g/d
- Average dairy food intake [1, 14]: 18.3 g/day
- Average dairy food intake [1, 15]: 20.6^▴▴ g/d
- Average dairy food intake [1, 16]: 19.5^▴ g/d
- Average dairy food intake [1, 17]: 20.6^▴▴ g/d
- Average dairy food intake [1, 18]: 21.4^▴▴ g/d
- Average dairy food intake [1, 19]: 22.8^▴▴ g/d
- Average dairy food intake [1, 20]: 24.6^▴▴ g/d
- Average dairy food intake [1, 21]: 26.8^▴▴ g/d
- Average dairy food intake [1, 22]: 28.2^▴▴ g/d
- Body weight [2, 5]: 230.8 g
- Body weight [2, 6]: 235.6 g
- Body weight [2, 7]: 243.1^▴ g
- Body weight [2, 8]: 250.2 g
- Body weight [2, 9]: 258.9^▴ g
- Body weight [2, 10]: 262.4 g
- Body weight [2, 11]: 268.7^▴ g
- Body weight [2, 12]: 280.6^▴▴ g
- Body weight [2, 13]: 290.1^▴▴ g
- Body weight [2, 14]: 231.0 g
- Body weight [2, 15]: 250.3^▴▴ g
- Body weight [2, 16]: 258.7^▴▴ g
- Body weight [2, 17]: 263.4^▴▴ g
- Body weight [2, 18]: 270.6^▴▴ g
- Body weight [2, 19]: 281.5^▴▴ g
- Body weight [2, 20]: 290.6^▴▴ g
- Body weight [2, 21]: 306.7^▴▴ g
- Body weight [2, 22]: 321.2^▴▴ g
- Systolic pressure ([3]; 60 mg/kg/d intragastric continuous, 1 d, 30 min after administration): 155.67 ± 12.36 mmHg
- Systolic pressure ([3]; 60 mg/kg/d intragastric continuous, 7 d, 30 min after administration): 153.46 ± 10.74 mmHg
- Systolic pressure ([3]; 60 mg/kg/d intragastric continuous, 13 d, 30 min after administration): 156.25 ± 10.84 mmHg
- Systolic pressure ([3]; 60 mg/kg/d intragastric continuous, 19 d, 30 min after administration): 150.68 ± 9.78 mmHg
- Systolic pressure ([3]; 60 mg/kg/d intragastric continuous, 25 d, 30 min after administration): 155.65 ± 10.57 mmHg
- Systolic pressure ([3]; 60 mg/kg/d intragastric continuous, 35 d, 30 min after administration): 154.25 ± 10.74 mmHg
- Systolic pressure ([3]; 60 mg/kg/d intragastric continuous, 49 d, 30 min after administration): 150.56 ± 10.42 mmHg
- Systolic pressure ([3]; 60 mg/kg/d intragastric continuous, 56 d, 30 min after administration): 153.85 ± 9.24 mmHg
- Systolic pressure ([3]; 60 mg/kg/d intragastric continuous, before administration): 168.41 ± 12.30 mmHg
- Systolic pressure ([3]; 120 mg/kg/d intragastric continuous, 1 d, 30 min after administration): 150.63 ± 10.25 mmHg
- Systolic pressure ([3]; 120 mg/kg/d intragastric continuous, 7 d, 30 min after administration): 148.54 ± 9.27 mmHg
- Systolic pressure ([3]; 120 mg/kg/d intragastric continuous, 13 d, 30 min after administration): 141.74 ± 8.26 mmHg
- Systolic pressure ([3]; 120 mg/kg/d intragastric continuous, 19 d, 30 min after administration): 140.95 ± 12.04 mmHg
- Systolic pressure ([3]; 120 mg/kg/d intragastric continuous, 25 d, 30 min after administration): 147.46 ± 9.85 mmHg
- Systolic pressure ([3]; 120 mg/kg/d intragastric continuous, 35 d, 30 min after administration): 142.33 ± 10.38 mmHg
- Systolic pressure ([3]; 120 mg/kg/d intragastric continuous, 49 d, 30 min after administration): 138.79 ± 11.58 mmHg
- Systolic pressure ([3]; 120 mg/kg/d intragastric continuous, 56 d, 30 min after administration): 135.28 ± 7.48 mmHg
- Systolic pressure ([3]; 120 mg/kg/d intragastric continuous, before administration): 167.49 ± 13.09 mmHg
- Systolic pressure ([4]; 60 mg/kg intragastric single administration, 30 min): 160.42 ± 9.56 mmHg
- Systolic pressure ([4]; 60 mg/kg intragastric single administration, 60 min): 153.15 ± 12.51 mmHg
- Systolic pressure ([4]; 60 mg/kg intragastric single administration, 90 min): 155.16 ± 11.26 mmHg
- Systolic pressure ([4]; 60 mg/kg intragastric single administration, 120 min): 159.17 ± 11.63 mmHg
- Systolic pressure ([4]; 60 mg/kg intragastric single administration, before administration): 168.41 ± 12.30 mmHg
- Systolic pressure ([4]; 120 mg/kg intragastric single administration, 30 min): 151.46 ± 16.27 mmHg
- Systolic pressure ([4]; 120 mg/kg intragastric single administration, 60 min): 157.54 ± 17.95 mmHg
- Systolic pressure ([4]; 120 mg/kg intragastric single administration, 90 min): 160.26 ± 16.54 mmHg
- Systolic pressure ([4]; 120 mg/kg intragastric single administration, 120 min): 152.21 ± 18.27 mmHg
- Systolic pressure ([4]; 120 mg/kg intragastric single administration, before administration): 167.49 ± 13.09 mmHg
